The numbers were not newly measured in patent US7442558B2, “Phthalamide-lanthanide complexes for use as luminescent markers” (The Regents of the University of California, priority 1999, dated 2008), which cites them from elsewhere.

Several values for one entry are separate records, joined by “and”; a condition that tells them apart may be missing. Equal values may be shown once. Where a name gives a salt, the structure may show the parent alone.

For this data set the following is noted: in 0.05 M H2SO4; reference standard; cited from earlier work.

Turning to `C=C[C@H]1C[N@@]2CC[C@H]1C[C@H]2[C@H](O)c1ccnc2ccc(OC)cc12` [quinine sulfate], the absolute quantum yield was 0.54 and 0.5460.
